# Measurements from the supplement of paper PMC10307832.
# Key:
# Experiment in all cases: relative viability (nuclei count vs DMSO), 5 days (fraction); higher = more cells survive
# XMD13-2 + Lapatinib = compound: C1CC1C(=O)NC2=NNC3=C2C=CC(=C3)C4=CC(=CC=C4)C(=O)NC5CC5 [XMD13-2] + CS(=O)(=O)CCNCc1ccc(-c2ccc3ncnc(Nc4ccc(OCc5cccc(F)c5)c(Cl)c4)c3c2)o1 [Lapatinib] (partner 2 µM)
# Outline: (§1)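 Lung cancer cell lines were seeded in 1536-well plates and dosed by pin tool the next day, with either a single drug or a fixed anchor-drug dose combined with five library-drug doses (not always all listed) spaced in √10 steps. Five days later, one step fixed the cells and stained their nuclei (final 0.05% Triton X-100, 1% formaldehyde, 1 ug/ml Hoechst), and nuclei were counted on 4× images. Relative viability is the nuclei count in treated wells divided by the count in vehicle wells, and each value is the median of duplicate plates.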
# XMD13-2 + Vorinostat = compound: C1CC1C(=O)NC2=NNC3=C2C=CC(=C3)C4=CC(=CC=C4)C(=O)NC5CC5 [XMD13-2] + O=C(CCCCCCC(=O)Nc1ccccc1)NO [Vorinostat] (partner 1 µM)
# Outline: as §1
# ALW-II-49-7 + Vorinostat = compound: Cc1ccc(C(=O)Nc2cccc(C(F)(F)F)c2)cc1Nc1cncc(C(N)=O)c1 [ALW-II-49-7] + O=C(CCCCCCC(=O)Nc1ccccc1)NO [Vorinostat] (partner 1 µM)
# Outline: as §1
# Dasatinib + Linsitinib = compound: Cc1nc(Nc2ncc(C(=O)Nc3c(C)cccc3Cl)s2)cc(N2CCN(CCO)CC2)n1 [Dasatinib] + C[C@]1(O)C[C@@H](c2nc(-c3ccc4ccc(-c5ccccc5)nc4c3)c3c(N)nccn32)C1 [Linsitinib] (partner 1 µM)
# Outline: as §1
Cell Line,relative viability (XMD13-2 + Lapatinib; first compound 0.05 µM),relative viability (XMD13-2 + Lapatinib; first compound 0.1581 µM),relative viability (XMD13-2 + Lapatinib; first compound 0.5 µM),relative viability (XMD13-2 + Lapatinib; first compound 1.581 µM),relative viability (XMD13-2 + Lapatinib; first compound 5 µM),relative viability (XMD13-2 + Vorinostat; first compound 0.05 µM),relative viability (XMD13-2 + Vorinostat; first compound 0.1581 µM),relative viability (XMD13-2 + Vorinostat; first compound 0.5 µM),relative viability (XMD13-2 + Vorinostat; first compound 1.581 µM),relative viability (XMD13-2 + Vorinostat; first compound 5 µM),relative viability (ALW-II-49-7 + Vorinostat; first compound 0.08 µM),relative viability (ALW-II-49-7 + Vorinostat; first compound 0.253 µM),relative viability (ALW-II-49-7 + Vorinostat; first compound 0.8 µM),relative viability (ALW-II-49-7 + Vorinostat; first compound 2.53 µM),relative viability (ALW-II-49-7 + Vorinostat; first compound 8 µM),relative viability (Dasatinib + Linsitinib; first compound 0.005 µM),relative viability (Dasatinib + Linsitinib; first compound 0.01581 µM),relative viability (Dasatinib + Linsitinib; first compound 0.05 µM),relative viability (Dasatinib + Linsitinib; first compound 0.1581 µM),relative viability (Dasatinib + Linsitinib; first compound 0.5 µM)
EPLC-272H,1.09,0.897,1.01,0.817,0.911,0.474,0.473,0.374,0.33,0.0998,0.37,0.436,0.352,0.32,0.301,1.24,1.28,1.46,0.92,0.338
LXF-289,0.923,0.901,0.905,0.897,0.834,0.864,0.767,0.86,0.959,0.808,0.726,0.877,0.81,0.854,0.762,1,0.974,0.831,0.202,0.131
COR-L23,1.26,1.09,0.929,1.08,0.91,0.58,0.566,0.737,0.368,0.544,0.409,0.452,0.496,0.414,0.385,0.867,0.665,0.613,0.329,0.242
RERF-LC-KJ,0.912,0.841,0.858,0.816,0.78,0.783,0.653,0.686,0.616,0.806,0.646,0.731,0.653,0.755,0.646,0.896,0.845,0.862,0.67,0.634
NCI-H1755,1.08,1.09,1.07,1,1.09,0.827,0.685,0.875,0.926,0.795,0.88,0.83,0.783,0.685,0.608,0.795,0.743,0.642,0.391,0.171
PC-14,0.38,0.324,0.39,0.337,0.345,0.951,0.934,0.749,0.825,0.975,0.474,0.544,0.668,0.562,0.588,1,0.968,0.93,0.546,0.281
NCI-H322M,0.641,0.528,0.593,0.605,0.724,0.927,0.984,0.914,–,1.05,0.789,0.93,0.861,0.93,0.773,1.04,0.703,0.708,0.319,0.196
NCI-H1666,0.63,0.666,0.979,0.719,0.441,0.999,1.02,1.09,1.03,1,0.903,1.07,1.11,0.971,1,0.806,0.595,0.788,0.464,0.288
A-427,1.1,1.01,1.1,1.01,1.05,0.927,0.852,0.862,–,0.705,0.936,0.902,0.854,0.838,0.826,1.1,1.14,0.995,0.574,0.535
NCI-H1651,1.09,0.78,0.906,1.09,0.751,0.586,0.561,0.565,0.593,0.613,0.576,0.665,0.579,0.54,0.555,0.894,0.746,0.551,0.474,0.498
NCI-H1793,0.885,0.609,1.03,0.601,0.826,1.03,0.602,0.746,0.666,0.928,0.816,0.811,0.616,0.798,0.431,0.524,0.644,0.553,0.506,0.472
NCI-H520,1.06,0.923,0.924,0.717,0.354,0.799,0.743,0.698,0.869,0.414,0.782,0.649,0.681,0.696,0.617,0.719,0.598,0.453,0.249,0.19
201T,1.06,1.13,1.02,1.07,1.08,0.997,1.04,1.05,0.981,1.04,0.922,1.02,0.995,1.02,0.801,1.03,0.953,0.812,0.679,0.371
NCI-H460,1.23,0.925,1.27,0.908,0.0203,1,0.723,0.828,0.696,0.766,0.763,0.857,0.69,0.497,0.498,0.315,0.229,0.157,0.0338,0.0131
NCI-H596,1.1,0.942,1.22,0.989,1.17,0.726,0.612,0.582,0.61,1.02,0.488,0.574,0.586,0.683,0.456,0.854,0.828,0.784,0.449,0.328
HARA,0.825,0.886,0.699,0.711,0.538,0.555,0.484,0.536,0.578,0.372,0.608,0.597,0.634,0.594,0.58,0.971,0.67,0.516,0.247,0.189
